For 41 molecules, IC50 and Activity results are on record in ChEMBL document CHEMBL1152357, “Synthesis and biological activity of heteroaryl 3-(1,1-dioxo-2H-(1,2,4)-benzothiadizin-3-yl)-4-hydroxy-2(1H)-quinolinone derivatives as hepatitis C virus NS5B polymerase inhibitors” (Bioorg Med Chem Lett, 2009).

Data set [1] has as its system Hepatitis C virus. The experiment in a line: Antiviral activity against HCV 1b infected in human hepatoma cells by replicon assay. Type of data set: functional, organism-based, Hepacivirus hominis. To be noted: genotype 1b.
The target of another data set is Albumin (Homo sapiens, UniProt P02768). The experiment in a line: Binding affinity to human serum albumin. Conditions: isolated protein. Type of data set: ADME.
The subject of data set [2] is Hepatitis C virus. The experiment in a line: Inhibition of HCV 1b NS5B polymerase expressed in Sf9 cells. More on the design: species or system Hepatitis C virus subtype 1b.

Where only a bound is given, the exact number is not on record here.

Chain of Albumin (P02768 whole entry): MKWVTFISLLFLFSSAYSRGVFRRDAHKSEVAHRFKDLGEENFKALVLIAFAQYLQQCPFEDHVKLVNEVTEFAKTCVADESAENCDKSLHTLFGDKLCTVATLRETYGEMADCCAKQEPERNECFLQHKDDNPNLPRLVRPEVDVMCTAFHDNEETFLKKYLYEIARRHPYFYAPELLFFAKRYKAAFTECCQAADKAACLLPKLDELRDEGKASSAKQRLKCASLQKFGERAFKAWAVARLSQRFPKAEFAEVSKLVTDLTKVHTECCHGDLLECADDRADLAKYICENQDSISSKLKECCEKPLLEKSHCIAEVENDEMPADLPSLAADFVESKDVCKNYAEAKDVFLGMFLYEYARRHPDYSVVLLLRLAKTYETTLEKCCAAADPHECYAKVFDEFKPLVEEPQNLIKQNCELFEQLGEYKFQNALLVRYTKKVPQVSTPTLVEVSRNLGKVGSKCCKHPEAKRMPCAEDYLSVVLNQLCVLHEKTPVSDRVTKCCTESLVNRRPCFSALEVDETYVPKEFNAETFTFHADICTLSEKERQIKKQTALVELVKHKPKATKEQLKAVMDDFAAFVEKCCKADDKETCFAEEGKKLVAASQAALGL

For orientation: IC50 means the midpoint of a concentration-inhibition curve. The low end stands for greater potency, the high end for weaker potency. `CC(C)CCn1c(=O)c(C2=NS(=O)(=O)c3ccccc3N2)c(O)c2ccccc21` yielded an IC50 in the data set on Hepatitis C virus [1] of 417 nM. For the same molecule, at Albumin, the Activity is over 99.9%.
On to `CC(C)CCn1c(=O)c(C2=NS(=O)(=O)c3ccccc3N2)c(O)c2cccnc21`, for which the IC50 in the data set with Hepatitis C virus [2] was determined as 212 nM; in the data set on Hepatitis C virus [1], 1360 nM. Further, the Activity on Albumin was over 99.9%.
In the case of `CC(C)CCn1c(=O)c(C2=Nc3ccc(OCC(N)=O)cc3S(=O)(=O)N2)c(O)c2cccnc21`, the results for the IC50 in the data set with Hepatitis C virus [2] and with Hepatitis C virus [1] were under 5 nM and 52 nM, respectively. Also, on Albumin, the Activity is 98.4%.
The like results for `CC(C)CCn1c(=O)c(C2=NS(=O)(=O)c3cc(O)ccc3N2)c(O)c2cccnc21` were, in that order, 16 nM, 473 nM and 99%.
Turning to `CCN1CCC2=C(C1)S(=O)(=O)N=C(c1c(O)c3ccccc3n(CCC(C)C)c1=O)N2`, the figures for the IC50 in the data set on Hepatitis C virus [2] and in the data set on Hepatitis C virus [1] were 679 nM and 40000 nM, respectively. The molecule further gave an Activity at Albumin of 97.9%.
The like results for `CC(C)CCn1c(=O)c(C2=NS(=O)(=O)C3=C(CCN(CCc4nnn[nH]4)C3)N2)c(O)c2ccccc21` were, in that order, 289 nM, over 30000 nM and 98.7%.
For `CC(C)CCn1c(=O)c(C2=NS(=O)(=O)c3cc(OCC(N)=O)ccc3N2)c(O)c2ccsc21`, the IC50 is under 5 nM in the data set on Hepatitis C virus [2] and 238 nM in the data set with Hepatitis C virus [1]. The same molecule had an Activity at Albumin of 98.7%.
Turning to `CC(=O)N1CCC2=C(C1)S(=O)(=O)N=C(c1c(O)c3ccccc3n(CCC(C)C)c1=O)N2`, in the data set with Hepatitis C virus [2], the IC50 amounted to 1530 nM. In addition, the Activity at Albumin was found to be 98%.
In turn, `CC(C)CCn1c(=O)c(C2=NS(=O)(=O)c3ccccc3N2)c(O)c2cnn(C)c21` came in with an IC50 in the data set on Hepatitis C virus [2] of 3340 nM. On Albumin, this molecule had an Activity of 97%.
`CSc1ncc2c(O)c(C3=NS(=O)(=O)c4ccccc4N3)c(=O)n(CCC(C)C)c2n1` returned an IC50 in the data set with Hepatitis C virus [2] of over 30000 nM.
Turning to `CC(C)CCn1c(=O)c(C2=NS(=O)(=O)c3ccccc3N2)c(O)c2cc(Br)sc21`, in the data set on Hepatitis C virus [2], half-maximal inhibition (IC50) required 1170 nM. The molecule also returned an Activity at Albumin of over 99.9%.
The like results for `CC(C)CCn1c(=O)c(C2=NS(=O)(=O)C3=C(CCN(CCCN)C3)N2)c(O)c2ccccc21` were, in that order, 728 nM and 98.3%.
As to `CC(C)CCn1c(=O)c(C2=NS(=O)(=O)C3=C(CCN(CCC(N)=O)C3)N2)c(O)c2ccccc21`, the IC50 is 288 nM in the data set with Hepatitis C virus [2] and over 20000 nM with Hepatitis C virus [1]. On Albumin, this molecule gave an Activity of 98%.
For the molecule `CC(C)CCn1c(=O)c(C2=NS(=O)(=O)c3ccsc3N2)c(O)c2ccccc21`, the half-maximal inhibitory concentration (IC50) in the data set on Hepatitis C virus [2] amounted to 20 nM; in the data set on Hepatitis C virus [1], 2890 nM. On Albumin, this molecule displayed an Activity of 99.5%.
As to `CC(C)CCn1c(=O)c(C2=NS(=O)(=O)c3cccnc3N2)c(O)c2ccccc21`, the half-inhibitory concentration (IC50) in the data set on Hepatitis C virus [2] was found to be 51 nM; with Hepatitis C virus [1], 1680 nM.
On to `CC(C)CCn1c(=O)c(C2=NS(=O)(=O)c3cc(O)ccc3N2)c(O)c2sccc21`, for which the results for the IC50 in the data set on Hepatitis C virus [2] and in the data set on Hepatitis C virus [1] were 16 nM and 1190 nM, respectively. For the same molecule, the Activity on Albumin turned out to be 99%.
The like results for `CC(C)CCn1c(=O)c(C2=NS(=O)(=O)c3ccccc3N2)c(O)c2sccc21` were, in that order, over 48 nM, 942 nM and over 99.9%.
`COC(=O)CN1CCC2=C(C1)S(=O)(=O)N=C(c1c(O)c3ccccc3n(CCC(C)C)c1=O)N2` had an IC50 in the data set with Hepatitis C virus [2] of 879 nM. At Albumin, this molecule showed an Activity of 97.6%.
Consider `CC(C)CCn1c(=O)c(C2=NS(=O)(=O)c3c(cc[nH]c3=O)N2)c(O)c2ccccc21`, for which the IC50 amounted to 16 nM with Hepatitis C virus [2] and 13700 nM with Hepatitis C virus [1].
`CC(C)CCn1c(=O)c(C2=NS(=O)(=O)C3=C(CCN(C(=O)Nc4ccccc4)C3)N2)c(O)c2ccccc21` displayed a concentration for half-maximal inhibition (IC50) in the data set on Hepatitis C virus [2] of 975 nM. This molecule also gave an Activity on Albumin of 99.4%.
`O=c1c(C2=NS(=O)(=O)c3cc(O)ccc3N2)c(O)c2cccnc2n1CCC1CC1`: the figures for the IC50 in the data set on Hepatitis C virus [2] and in the data set on Hepatitis C virus [1] were 12 nM and 542 nM, respectively. The molecule further registered an Activity at Albumin of 98.8%.
On to `CC(C)CCn1c(=O)c(C2=NS(=O)(=O)c3cnccc3N2)c(O)c2ccccc21`, for which the results for the IC50 with Hepatitis C virus [2] and in the data set with Hepatitis C virus [1] were 20 nM and 226 nM, respectively. On Albumin, this molecule returned an Activity of 99%.
The like results for `CC(C)CCn1c(=O)c(C2=NS(=O)(=O)C3=C(CCNC3)N2)c(O)c2ccccc21` were, in that order, 604 nM, 12200 nM and 98.2%.
Regarding `CC(C)CCn1c(=O)c(C2=NS(=O)(=O)c3cc(OCC(N)=O)ccc3N2)c(O)c2ccccc21`, the IC50 in the data set on Hepatitis C virus [2] was 6 nM; in the data set with Hepatitis C virus [1] it was 15 nM. The Activity on Albumin stood at 99.2%.
The like results for `NC(=O)COc1ccc2c(c1)S(=O)(=O)N=C(c1c(O)c3cccnc3n(CCC3CC3)c1=O)N2` were, in that order, under 5 nM, 51 nM and 97.8%.
The like results for `CC(C)CCn1c(=O)c(C2=NS(=O)(=O)c3cc(O[C@H](C)C(N)=O)ccc3N2)c(O)c2sccc21` were, in that order, under 5 nM, 114 nM and 98.3%.
In the case of `Cc1nn(C)c2c1S(=O)(=O)N=C(c1c(O)c3ccccc3n(CCC(C)C)c1=O)N2`, the IC50 with Hepatitis C virus [2] is 200 nM; in the data set on Hepatitis C virus [1] it was over 20000 nM. At Albumin, the Activity is on record as 98.5%.
Turning to `CC(C)CCn1c(=O)c(C2=NS(=O)(=O)C3=C(CCN(CCC#N)C3)N2)c(O)c2ccccc21`, the IC50 with Hepatitis C virus [2] amounted to 132 nM; in the data set with Hepatitis C virus [1], 4320 nM.
As for `CC(C)CCn1c(=O)c(C2=NS(=O)(=O)c3c[n+]([O-])ccc3N2)c(O)c2ccccc21`, the IC50 stood at 18 nM in the data set with Hepatitis C virus [2] and 2380 nM with Hepatitis C virus [1]. The Activity on Albumin worked out at 97.7%.
Take `CC(C)CCn1c(=O)c(C2=NS(=O)(=O)c3cc(Cl)sc3N2)c(O)c2ccccc21`: the IC50 with Hepatitis C virus [2] was 57 nM; with Hepatitis C virus [1], over 20000 nM.
The like results for `CC(C)CCn1c(=O)c(C2=NS(=O)(=O)C3=C(CCN(CC(=O)O)C3)N2)c(O)c2ccccc21` were, in that order, 276 nM and over 20000 nM.
In the data set on Hepatitis C virus [2], `CNC(=O)N1CCC2=C(C1)S(=O)(=O)N=C(c1c(O)c3ccccc3n(CCC(C)C)c1=O)N2` displayed a 50% inhibitory concentration (IC50) of 774 nM. The molecule further returned an Activity on Albumin of 98.2%.
For the molecule `CC(C)CCn1c(=O)c(C2=NS(=O)(=O)c3ncccc3N2)c(O)c2ccccc21`, the values for the IC50 in the data set with Hepatitis C virus [2] and in the data set on Hepatitis C virus [1] were 31 nM and 743 nM, respectively. Moreover, the Activity at Albumin was 98.7%.
`CC(C)CCn1c(=O)c(C2=NS(=O)(=O)c3ccccc3N2)c(O)c2ccsc21`: the IC50 is 132 nM in the data set with Hepatitis C virus [2] and 1160 nM with Hepatitis C virus [1]. Also, the Activity on Albumin is recorded as over 99.9%.
Turning to `CC(C)CCn1c(=O)c(C2=NS(=O)(=O)c3c(sc(Cl)c3Br)N2)c(O)c2ccccc21`, it took 3020 nM to reach half-maximal inhibition in the data set with Hepatitis C virus [2] (IC50).
`CC(C)CCn1c(=O)c(C2=NS(=O)(=O)c3cc(OCC(N)=O)ccc3N2)c(O)c2sccc21`: the values for the IC50 in the data set on Hepatitis C virus [2] and in the data set on Hepatitis C virus [1] were under 5 nM and 126 nM, respectively. At Albumin, this molecule showed an Activity of 98.3%.
The like results for `CC(C)CCn1c(=O)c(C2=NS(=O)(=O)c3cc(O[C@H](C)C(N)=O)ccc3N2)c(O)c2cccnc21` were, in that order, under 5 nM, 47 nM and 98.3%.
In the data set with Hepatitis C virus [2], `CC(C)CCn1c(=O)c(C2=NS(=O)(=O)c3ccccc3N2)c(O)c2cc(-c3ccccc3)sc21` gave an IC50 of over 30000 nM.
Consider `CC(C)CCn1c(=O)c(C2=NS(=O)(=O)c3cc(O)ccc3N2)c(O)c2ccsc21`, for which the IC50 with Hepatitis C virus [2] stood at 25 nM; in the data set with Hepatitis C virus [1], 471 nM. This molecule also returned an Activity at Albumin of 99.1%.
Take `CC(C)CCn1c(=O)c(C2=NS(=O)(=O)c3ccccc3N2)c(O)c2cn[nH]c21`: the IC50 in the data set on Hepatitis C virus [2] was found to be 4940 nM. For the same molecule, the Activity at Albumin is 97.6%.
The like results for `C[C@@H](Oc1ccc2c(c1)S(=O)(=O)N=C(c1c(O)c3cccnc3n(CCC3CC3)c1=O)N2)C(N)=O` were, in that order, under 5 nM and 97.8%.
